Common to all, as to format: cell-based, human
For assay [1], the system named is TfR. Description: TfR protein in SH-SY5Y cells by Western blot. Here is the method:
(§1) Western blotting. After 48 h, cells were gently washed with ice-cold 1× DPBS, and total protein was extracted with Mammalian Protein Extraction Reagent (M-PER, Thermo Scientific) per the manufacturer's protocol. After quantifying protein concentration by using BCA Protein Assay Kit (Pierce Biotechnology), ~30 μg of total protein for each sample was separated using a 10% SDS-polyacrylamide gel and transferred onto a PVDF membrane. The membrane was fixed with 0.4% paraformaldehyde (pH=7.0) for 30 min at room temperature^9 and then blocked with 5% (w/v) non-fat dry milk in 1× TBST (1× TBS containing 0.1% Tween-20) for 1 h at room temperature. […] After washing 10 min each with 1× TBST three times, immunocomplex signals of each protein were detected by using a SuperSignal West Pico Chemiluminescent Substrate (Pierce Biotechnology) according to the manufacturer's protocol. The memebrane was then stripped by using 1× Stripping Buffer (200 mM glycine, pH 2.2, 4 mM SDS, 1% (v/v) Tween 20) at room temperature for 15 min, followed by blocking with 5% (w/v) non-fat dry milk at room temperature for 1 h. β-actin was used to normalize the levels of all proteins, measured by incubating with a primary antibody for β-actin (1:5000, 3700S from Cell Signaling Technology) at 4° C. overnight. […]
Background: Immunoblotting shows a protein as a band on a membrane.

Assay [2] relates to PD patient-derived neurons. Description: total RNA-seq in PD patient-derived dopaminergic neurons. Here is the method:
RNA-seq analysis. Total RNA was quantified using the Qubit 2.0 Fluorometer (Invitrogen) and an Agilent 2100 Bioanalyzer RNA nano chip. Samples with RIN>9.0 were proceeded to library preparation using NEBNext Ultra II Directional RNA Kit (Cat. #E7760, NEB) following manufacture's protocol. Briefly, 200 ng of total RNA was depleted of ribosomal RNA using the NEBNext rRNA Depletion Module. The product was chemically fragmented using NEBNext Magnesium RNA Fragmentation Module (E6150S, NEB) the at 94° C. for 15 min. First-strand synthesis was performed with random primers, and second strand was synthesized with dUTP in place of dTTP. After end repair and 3′ adenylation, the cDNA was ligated with adaptors and then treated with USER enzyme (Uracil-specific excision reagent). The product was PCR amplified with Illumina-barcoded primers to generate the cDNA libraries. The final libraries were analyzed on the bioanalyzer DNA chips, pooled in equimolar ratios, and loaded onto the NextSeq 500 v2.5 flow cell and sequenced with 2×40 bp paired-end chemistry. The raw data were aligned to the human genome using STAR.^11 Read counts were extracted using featureCounts,^12 and the differential gene analysis was performed using Deseq2.^13
Dopamine neuron induction. For dopamine neuronal induction,^15,16 the dual-SMAD inhibition method^17 was used for floor plate (FP)-based midbrain dopamine (DA) neuron induction with modifications. Prior to differentiation, Matrigel matrix (BD) was thawed at 4° C. overnight or on ice until it is dissolved. Matrigel coated 6-well plates were prepared according to manufacturer's instructions and incubated at 37° C. for at least 1 h before use. iPSCs were dissociated with Accutase (STEMCELL Technologies) and plated (3.5×10^5-4×10^5 cells per cm^2) into a new Matrigel coated plate and grown in mTeSR medium (STEMCELL Technologies) with StemBeads FGF2 (StemCultures) and ROCK inhibitor Y27632 (5 μM, Tocris). After 24 to 48 h, when the cells reached 100% confluency, the differentiation protocol was initiated by feeding the cells with DMEM containing 15% KnockOut Serum Replacement (KSR, Gibco), 2 mM L-glutamine (L-Glut) and 10 μM β-mercaptoethanol for 11 days.
Floor Plate (FP) induction protocol was followed based on timed exposure to BMP inhibitor LDN193189 (100 nM, PeproTech), ALK inhibitor SB431542 (10 μM, Tocris), recombinant mouse sonic hedgehog N-terminus SHH C25II (100 ng/ml, R&D), Smoothened agonist Purmorphamine (2 μM, PeproTech) and GSK3 inhibitor CHIR99021 (CHIR; 3 μM, PeproTech). KSR medium was gradually shifted to N2 medium (Neurobasal/N2 with B27 Plus Supplement; Gibco) starting on day 5 of differentiation as described previously.^18 On day 11, the medium was changed to Neurobasal/B27/L-Glut containing medium (NB/B27; Gibco) supplemented with CHIR (until day 13) and with BDNF (20 ng/ml; PeproTech), ascorbic acid (0.2 mM), GDNF (20 ng/ml; PeproTech), dibutyryl cAMP (0.5 mM; PeproTech), TGFβ3 (1 ng/ml; PeproTech), and γ-secretase inhibitor DAPT (10 μM; PeproTech) for 9 days. On Day 20 and Day 30 (midbrain DA neuron precursor stages), cells were dissociated using Accutase and replated at high cell density (8× 10^5 cells per cm^2) in dishes pre-coated with 15 μg/ml polyornithine/1 μg/ml laminin/2 μg/ml fibronectin in differentiation medium (NB/B27+BDNF, ascorbic acid, GDNF, dbcAMP, TGFβ3 and DAPT). […]

Assay [3] has as its system HHIPL1. Put plainly: HHIPL1 protein in SH-SY5Y cells by Western blot. The conditions noted are these: 2 μM, 48 h. The protocol:
as §1

The mark [4] stands for this setting: among 461 genes significantly downregulated in PD neurons.
Where [5] appears, read: among 976 genes significantly upregulated in PD neurons.

SMILES strings stand for the structures.

For `CCOC(=O)C1=C(Nc2ccccc2)S/C(=C\c2ccc(OCCOCCOCCOCCNC(=O)CCCOc3ccc(-n4c(SCC(=O)Nc5ccc6cn[nH]c6c5)nnc4-c4ccncc4)cc3)c(O)c2)C1=O` [Syn-RiboTAC], the “effect on TfR protein level” value in assay [1] is “no effect”. Moreover, the “hexokinase 2 (HK2) expression” value in assay [2] (PD patient-derived neurons, only gene besides SNCA) is recorded as “significantly decreased”. For the same compound, in assay [2] (setting [4]), the “number of PD-downregulated genes improved” value amounted to 223 and the “percent of PD-downregulated genes improved” value came out at 48%. Besides, in assay [2] (setting [5]), the “number of PD-upregulated genes improved (decreased)” value worked out at 488 and the “percent of PD-upregulated genes improved (decreased)” value is 50%. The “reduction of HHIPL1 protein level” value in assay [3] is listed as ~ 20%.
